{"source": "ChEMBL document CHEMBL4342450", "about": "“Antitumor Activity of Ohmyungsamycin A through the Regulation of the Skp2-p27 Axis and MCM4 in Human Colorectal Cancer Cells” (J Nat Prod, 2020)", "key": {"[1]": {"tested_on": "SNU-638", "assay": "Antiproliferative activity against human SNU638 cells after 72 hrs by sulforhodamine B assay", "format": "functional, cell-based", "settings": "SNU-638, 72 h"}, "[2]": {"tested_on": "HCT-116", "assay": "Antiproliferative activity against human HCT116 cells after 72 hrs by sulforhodamine B assay", "format": "functional, cell-based", "settings": "HCT-116, 72 h"}, "[3]": {"tested_on": "A549", "assay": "Antiproliferative activity against human A549 cells after 72 hrs by sulforhodamine B assay", "format": "functional, cell-based", "settings": "A549, 72 h"}, "[4]": {"tested_on": "SK-HEP1", "assay": "Antiproliferative activity against human SKHEP1 cells after 72 hrs by sulforhodamine B assay", "format": "functional, cell-based", "settings": "SK-HEP1, 72 h"}, "[5]": {"tested_on": "MRC5", "assay": "Antiproliferative activity against human MRC5 cells after 72 hrs by sulforhodamine B assay", "format": "cell-based", "settings": "MRC5, 72 h"}, "[6]": {"tested_on": "MDA-MB-231", "assay": "Antiproliferative activity against human MDA-MB-231 cells after 72 hrs by sulforhodamine B assay", "format": "functional, cell-based", "settings": "MDA-MB-231, 72 h"}}}
{"smiles": "COc1cc([C@@H]2c3cc4c(cc3[C@@H](O[C@@H]3O[C@@H]5CO[C@@H](C)O[C@H]5[C@H](O)[C@H]3O)[C@H]3COC(=O)[C@H]23)OCO4)cc(OC)c1O", "note": "[ETOPOSIDE]", "values": [{"measurement": "IC50", "setting": "[1]", "result": 0.82, "unit": "µM"}, {"measurement": "IC50", "setting": "[2]", "result": 0.52, "unit": "µM"}, {"measurement": "IC50", "setting": "[3]", "result": 0.48, "unit": "µM"}, {"measurement": "IC50", "setting": "[4]", "result": 0.78, "unit": "µM"}, {"measurement": "IC50", "setting": "[5]", "result": 11.2, "unit": "µM"}, {"measurement": "IC50", "setting": "[6]", "result": 3.85, "unit": "µM"}]}
